According to US20100267561A1, “HERBICIDAL PYRIDAZINONE DERIVATIVES” (priority 2007, published 2010):

Tests used:
Assay in all cases: Test B pre-/postemergence plant response
Type in all cases: in vivo
[1] = test system: Italian ryegrass (Lolium multiflorum)
Summary of the method: (§1)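 Visual scoring from 0 (no effect) to 100 (complete control) against untreated controls was done 13 to 15 days after greenhouse treatment. Chemicals were formulated in a surfactant-containing non-phytotoxic solvent and applied to soil preemergence or to 1- to 4-leaf (2-18 cm) plants postemergence.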

[2] = test system: Russian thistle (Salsola iberica); conditions: Preemergence
Summary of the method: as §1

[3] = test system: common (oilseed) sunflower (Helianthus annuus); conditions: Preemergence
Summary of the method: as §1

[4] = test system: common ragweed (Ambrosia elation)
Summary of the method: as §1

corn (Zea mays) = test system: corn (Zea mays)
Summary of the method: as §1

[5] = test system: eastern black (E.B.) nightshade (Solanum ptycanthum); conditions: Preemergence
Summary of the method: as §1

[6] = test system: giant foxtail (Setaria faberii)
Summary of the method: as §1

[7] = test system: goosegrass (Eleusine indica)
Summary of the method: as §1

[8] = test system: green foxtail (Setaria viridis)
Summary of the method: as §1

[9] = test system: johnsongrass (Sorghum halepense)
Summary of the method: as §1

kochia (Kochia scoparia) = test system: kochia (Kochia scoparia)
Summary of the method: as §1

[10] = test system: pigweed (Amaranthus retroflexus)
Summary of the method: as §1

[11] = test system: surinam grass (Brachiaria decumbens)
Summary of the method: as §1

[12] = test system: yellow nutsedge (Cyperus esculentus)
Summary of the method: as §1

[13] = 8 g ai/ha, postemergence, 0-100 scale
[14] = Postemergence, 16 g ai/ha, scale 0 to 100
[15] = Postemergence, 31 g ai/ha, scale 0 to 100
[16] = Postemergence, 62 g ai/ha, scale 0 to 100, 0 no effect, 100 complete control
[17] = Preemergence, 31 g ai/ha, scale 0 to 100 (0 no effect, 100 complete control)
[18] = Preemergence, 62 g ai/ha, scale 0 to 100
[19] = Preemergence, 8 g ai/ha, scale 0 to 100
[20] = Preemergence, 16 g ai/ha, scale 0 to 100
[21] = 31 g ai/ha, scale 0 to 100 (0 no effect, 100 complete control)
[22] = Preemergence, 31 g ai/ha, 0 to 100 scale, 0 no effect, 100 complete control
[23] = Preemergence, 62 g ai/ha, 0 to 100 scale, 0 no effect, 100 complete control

Cc1cc(-c2ccc(Cl)cc2)nn1-c1c(OC(=O)c2cccs2)cnn(C)c1=O [Compound 52]
Ryegrass, Italian plant response rating [1, 13]: 70 | Plant response rating, Ryegrass, Italian [1, 14]: 80 | Plant response rating, Ryegrass, Italian [1, 15]: 95 | Plant response rating, Ryegrass, Italian [1, 16]: 100 | Plant response rating, Ryegrass, Italian [1, 17]: 95 | Plant response rating, Ryegrass, Italian [1, 18]: 100 | Ryegrass, Italian plant response rating [1, 19]: 0 | Ryegrass, Italian plant response rating [1, 20]: 95 | Plant response rating, Russian Thistle [2, 21]: 0 | Plant response rating, Russian Thistle ([2]; 62 g ai/ha, scale 0 to 100): 0 | Russian Thistle plant response rating ([2]; 8 g ai/ha, scale 0 to 100): 0 | Russian Thistle plant response rating ([2]; 16 g ai/ha, scale 0 to 100): 0 | Plant response rating, Sunflower [3, 21]: 0 | Plant response rating, Sunflower ([3]; 62 g ai/ha, scale 0 to 100): 0 | Sunflower plant response rating ([3]; 8 g ai/ha, scale 0 to 100): 0 | Sunflower plant response rating ([3]; 16 g ai/ha, scale 0 to 100): 0 | Ragweed plant response rating [4, 13]: 0 | Plant response rating, Ragweed [4, 14]: 0 | Plant response rating, Ragweed [4, 15]: 0 | Plant response rating, Ragweed [4, 16]: 0 | Plant response rating, Ragweed [4, 17]: 0 | Plant response rating, Ragweed [4, 18]: 0 | Ragweed plant response rating [4, 19]: 0 | Ragweed plant response rating [4, 20]: 0 | Corn plant response rating (corn (Zea mays); [13]): 85 | Plant response rating, Corn (corn (Zea mays); [14]): 98 | Plant response rating, Corn (corn (Zea mays); [15]): 98 | Plant response rating, Corn (corn (Zea mays); [16]): 98 | Plant response rating, Corn (corn (Zea mays); [22]): 70 | Plant response rating, Corn (corn (Zea mays); [18]): 75 | Corn plant response rating (corn (Zea mays); [19]): 0 | Corn plant response rating (corn (Zea mays); [20]): 55 | Plant response rating, Nightshade, E. B. [5, 21]: 0 | Plant response rating, Nightshade, E. B. ([5]; 62 g ai/ha, scale 0 to 100): 0 | Nightshade, E. B. plant response rating ([5]; 8 g ai/ha, scale 0 to 100): 0 | Nightshade, E. B. plant response rating ([5]; 16 g ai/ha, scale 0 to 100): 0 | Foxtail, Giant plant response rating [6, 13]: 85 | Plant response rating, Foxtail, Giant [6, 14]: 98 | Plant response rating, Foxtail, Giant [6, 15]: 100 | Plant response rating, Foxtail, Giant [6, 16]: 100 | Plant response rating, Foxtail, Giant [6, 22]: 0 | Plant response rating, Foxtail, Giant [6, 18]: 98 | Foxtail, Giant plant response rating [6, 19]: 0 | Foxtail, Giant plant response rating [6, 20]: 0 | Goosegrass plant response rating [7, 13]: 60 | Plant response rating, Goosegrass [7, 14]: 65 | Plant response rating, Goosegrass [7, 15]: 80 | Plant response rating, Goosegrass [7, 16]: 85 | Plant response rating, Goosegrass [7, 22]: 0 | Plant response rating, Goosegrass [7, 18]: 0 | Goosegrass plant response rating [7, 19]: 0 | Goosegrass plant response rating [7, 20]: 0 | Foxtail, Green plant response rating [8, 13]: 80 | Plant response rating, Foxtail, Green [8, 14]: 95 | Plant response rating, Foxtail, Green [8, 15]: 98 | Plant response rating, Foxtail, Green [8, 16]: 100 | Plant response rating, Foxtail, Green [8, 22]: 100 | Plant response rating, Foxtail, Green [8, 18]: 100 | Foxtail, Green plant response rating [8, 19]: 90 | Foxtail, Green plant response rating [8, 20]: 90 | Johnsongrass plant response rating [9, 13]: 75 | Plant response rating, Johnsongrass [9, 14]: 80 | Plant response rating, Johnsongrass [9, 15]: 90 | Plant response rating, Johnsongrass [9, 16]: 95 | Plant response rating, Johnsongrass [9, 22]: 80 | Plant response rating, Johnsongrass [9, 18]: 85 | Johnsongrass plant response rating [9, 19]: 55 | Johnsongrass plant response rating [9, 20]: 65 | Kochia plant response rating (kochia (Kochia scoparia); [13]): 0 | Plant response rating, Kochia (kochia (Kochia scoparia); [14]): 0 | Plant response rating, Kochia (kochia (Kochia scoparia); [15]): 0 | Plant response rating, Kochia (kochia (Kochia scoparia); [16]): 0 | Plant response rating, Kochia (kochia (Kochia scoparia); [18]): 85 | Kochia plant response rating (kochia (Kochia scoparia); [19]): 0 | Kochia plant response rating (kochia (Kochia scoparia); [20]): 0 | Pigweed plant response rating [10, 13]: 0 | Plant response rating, Pigweed [10, 14]: 0 | Plant response rating, Pigweed [10, 15]: 0 | Plant response rating, Pigweed [10, 16]: 0 | Plant response rating, Pigweed [10, 17]: 0 | Plant response rating, Pigweed [10, 18]: 0 | Pigweed plant response rating [10, 19]: 0 | Pigweed plant response rating [10, 20]: 0 | Surinam Grass plant response rating [11, 13]: 70 | Plant response rating, Surinam Grass [11, 14]: 85 | Plant response rating, Surinam Grass [11, 15]: 100 | Plant response rating, Surinam Grass [11, 16]: 100 | Plant response rating, Surinam Grass [11, 17]: 25 | Plant response rating, Surinam Grass [11, 23]: 100 | Surinam Grass plant response rating [11, 19]: 0 | Surinam Grass plant response rating [11, 20]: 0 | Nutsedge, Yellow plant response rating [12, 13]: 0 | Plant response rating, Nutsedge, Yellow [12, 14]: 0 | Plant response rating, Nutsedge, Yellow [12, 15]: 0 | Plant response rating, Nutsedge, Yellow [12, 16]: 0 | Plant response rating, Nutsedge, Yellow [12, 17]: 0 | Plant response rating, Nutsedge, Yellow [12, 18]: 0 | Nutsedge, Yellow plant response rating [12, 19]: 0 | Nutsedge, Yellow plant response rating [12, 20]: 0

Cc1cc(-c2ccc(Cl)cc2)nn1-c1c(OC(=O)Oc2ccccc2)cnn(C)c1=O [Compound 54]
Ryegrass, Italian plant response rating [1, 13]: 75 | Plant response rating, Ryegrass, Italian [1, 14]: 95 | Plant response rating, Ryegrass, Italian [1, 15]: 95 | Plant response rating, Ryegrass, Italian [1, 16]: 100 | Plant response rating, Ryegrass, Italian [1, 17]: 90 | Plant response rating, Ryegrass, Italian [1, 18]: 100 | Ryegrass, Italian plant response rating [1, 19]: 20 | Ryegrass, Italian plant response rating [1, 20]: 90 | Plant response rating, Russian Thistle [2, 21]: 0 | Plant response rating, Russian Thistle ([2]; 62 g ai/ha, scale 0 to 100): 0 | Russian Thistle plant response rating ([2]; 8 g ai/ha, scale 0 to 100): 0 | Russian Thistle plant response rating ([2]; 16 g ai/ha, scale 0 to 100): 0 | Plant response rating, Sunflower [3, 21]: 0 | Plant response rating, Sunflower ([3]; 62 g ai/ha, scale 0 to 100): 0 | Sunflower plant response rating ([3]; 8 g ai/ha, scale 0 to 100): 0 | Sunflower plant response rating ([3]; 16 g ai/ha, scale 0 to 100): 0 | Ragweed plant response rating [4, 13]: 0 | Plant response rating, Ragweed [4, 14]: 0 | Plant response rating, Ragweed [4, 15]: 0 | Plant response rating, Ragweed [4, 16]: 0 | Plant response rating, Ragweed [4, 17]: 0 | Plant response rating, Ragweed [4, 18]: 0 | Ragweed plant response rating [4, 19]: 0 | Ragweed plant response rating [4, 20]: 0 | Corn plant response rating (corn (Zea mays); [13]): 0 | Plant response rating, Corn (corn (Zea mays); [14]): 0 | Plant response rating, Corn (corn (Zea mays); [15]): 25 | Plant response rating, Corn (corn (Zea mays); [16]): 100 | Plant response rating, Corn (corn (Zea mays); [22]): 65 | Plant response rating, Corn (corn (Zea mays); [18]): 85 | Corn plant response rating (corn (Zea mays); [19]): 0 | Corn plant response rating (corn (Zea mays); [20]): 0 | Plant response rating, Nightshade, E. B. [5, 21]: 0 | Plant response rating, Nightshade, E. B. ([5]; 62 g ai/ha, scale 0 to 100): 0 | Nightshade, E. B. plant response rating ([5]; 8 g ai/ha, scale 0 to 100): 0 | Nightshade, E. B. plant response rating ([5]; 16 g ai/ha, scale 0 to 100): 0 | Foxtail, Giant plant response rating [6, 13]: 85 | Plant response rating, Foxtail, Giant [6, 14]: 98 | Plant response rating, Foxtail, Giant [6, 15]: 100 | Plant response rating, Foxtail, Giant [6, 16]: 100 | Plant response rating, Foxtail, Giant [6, 22]: 20 | Plant response rating, Foxtail, Giant [6, 18]: 55 | Foxtail, Giant plant response rating [6, 19]: 0 | Foxtail, Giant plant response rating [6, 20]: 0 | Goosegrass plant response rating [7, 13]: 55 | Plant response rating, Goosegrass [7, 14]: 65 | Plant response rating, Goosegrass [7, 15]: 70 | Plant response rating, Goosegrass [7, 16]: 98 | Plant response rating, Goosegrass [7, 22]: 0 | Plant response rating, Goosegrass [7, 18]: 0 | Goosegrass plant response rating [7, 19]: 0 | Goosegrass plant response rating [7, 20]: 0 | Foxtail, Green plant response rating [8, 13]: 70 | Plant response rating, Foxtail, Green [8, 14]: 95 | Plant response rating, Foxtail, Green [8, 15]: 95 | Plant response rating, Foxtail, Green [8, 16]: 100 | Plant response rating, Foxtail, Green [8, 22]: 100 | Plant response rating, Foxtail, Green [8, 18]: 100 | Foxtail, Green plant response rating [8, 19]: 55 | Foxtail, Green plant response rating [8, 20]: 95 | Johnsongrass plant response rating [9, 13]: 0 | Plant response rating, Johnsongrass [9, 14]: 25 | Plant response rating, Johnsongrass [9, 15]: 80 | Plant response rating, Johnsongrass [9, 16]: 100 | Plant response rating, Johnsongrass [9, 22]: 75 | Plant response rating, Johnsongrass [9, 18]: 90 | Johnsongrass plant response rating [9, 19]: 0 | Johnsongrass plant response rating [9, 20]: 40 | Kochia plant response rating (kochia (Kochia scoparia); [13]): 0 | Plant response rating, Kochia (kochia (Kochia scoparia); [14]): 0 | Plant response rating, Kochia (kochia (Kochia scoparia); [15]): 0 | Plant response rating, Kochia (kochia (Kochia scoparia); [16]): 0 | Plant response rating, Kochia (kochia (Kochia scoparia); [22]): 0 | Pigweed plant response rating [10, 13]: 0 | Plant response rating, Pigweed [10, 14]: 0 | Plant response rating, Pigweed [10, 15]: 0 | Plant response rating, Pigweed [10, 16]: 0 | Plant response rating, Pigweed [10, 17]: 0 | Plant response rating, Pigweed [10, 18]: 0 | Pigweed plant response rating [10, 19]: 0 | Pigweed plant response rating [10, 20]: 0 | Surinam Grass plant response rating [11, 13]: 50 | Plant response rating, Surinam Grass [11, 14]: 95 | Plant response rating, Surinam Grass [11, 15]: 98 | Plant response rating, Surinam Grass [11, 16]: 100 | Plant response rating, Surinam Grass [11, 17]: 55 | Plant response rating, Surinam Grass [11, 23]: 85 | Surinam Grass plant response rating [11, 19]: 0 | Surinam Grass plant response rating [11, 20]: 0 | Nutsedge, Yellow plant response rating [12, 13]: 0 | Plant response rating, Nutsedge, Yellow [12, 14]: 0 | Plant response rating, Nutsedge, Yellow [12, 15]: 0 | Plant response rating, Nutsedge, Yellow [12, 16]: 0 | Plant response rating, Nutsedge, Yellow [12, 17]: 0 | Plant response rating, Nutsedge, Yellow [12, 18]: 0 | Nutsedge, Yellow plant response rating [12, 19]: 0 | Nutsedge, Yellow plant response rating [12, 20]: 0
